Assay results published in patent publication US11466032B2, “Cytotoxic agents” (FEMTOGENIX LIMITED, priority 2017, dated 2022).

How the values were obtained:
[1] = system: MCF-7; assay: MTT cytotoxicity assay, 72 hour incubation; type: cell-based; settings: Homo sapiens, MCF7, 3 runs
Protocol: (§1) The cytotoxicity of compounds 26, 34, 50,58 and 68 were evaluated in a variety of cell lines using the standard MTT assay for a 72 hour incubation period (Table 1).
(§2) Tumor cell lines were maintained in RPMI1640 medium supplemented with 10% heat-inactivated fetal bovine serum, 2 mM L-glutamine and 1 mM sodium pyruvate. 1800 cells per well were seeded in a volume of 180 μl in a 96-well flat bottom polystyrene plate. The cells were allowed to adhere overnight at 37° C. in a CO2 incubator. Ligands were initially formulated in DMSO, and stocks stored at −80° C. They were then further formulated at lox concentration in RPMI1640 medium. 20 ul of diluted samples were added into each treatment well. On each plate, blank wells with no cells, and untreated wells containing cells, were included. Plates were then cultured at 37° C. in a CO2 incubator for 72 hrs. Cytotoxicity was evaluated using a tetrazolium salt-based assay, the MT assay. After 72 hours, the supernatant was removed from each well and 200 μl of a sterile filtered 500 μg/ml MT solution in water added to each well. The plates were then incubated at 37° C. in a CO2 incubator for 4 hrs. The supernatant was then removed and the formazan crystals formed solubilized by adding 150 μl of DMSO to each well. The plate was then read on a plate reader at 540 nm, and percentage cell survival calculated as follows: ((mean absorbance treated wells at concentration x—mean absorbance blank wells)÷(mean absorbance untreated wells at concentration x—mean absorbance blank wells))×100. Data were plotted as concentration in nM vs. % cell survival in Microsoft Excel, and IC50 values (concentration where cell survival is reduced by a half) were determined from the graph.

[2] = system: SK-BR-3; assay: MTT cytotoxicity assay, 72 hour incubation; type: cell-based; settings: Homo sapiens, 3 runs
Protocol: as §1, §2

[3] = system: SW 620; assay: MTT cytotoxicity assay, 72 hour incubation; type: cell-based; settings: Homo sapiens, SW-620, 3 runs
Protocol: as §1, §2

[4] = system: SW48; assay: MTT cytotoxicity assay, 72 hour incubation; type: cell-based; settings: Homo sapiens, SW48, 3 runs
Protocol: as §1, §2

[5] = system: ZR 75-1; assay: MTT cytotoxicity assay, 72 hour incubation; type: cell-based; settings: Homo sapiens, 3 runs
Protocol: as §1, §2

[6] = system: linear 32P-end-labelled HexA DNA; assay: DNA interstrand cross-linking assay (denaturing polyacrylamide gel); type: biochemical; settings: overnight incubation at 37° C.
Protocol: The ability of 26 and 34 to cross-link DNA was determined using an assay involving linear double-stranded HexA. TyrT and MS1 DNA fragments (FIG. 5).
Following denaturation conditions (treatment with formamide and heating at 65° C. for 5 min) the DNA strands were completely separated (see control C2, FIG. 6). The presence of an interstrand cross-link holds the denatured strands in close proximity, and cross-linked adducts therefore run as double-stranded DNA on polyacrylamide gel. Talirine and 34 were tested at >10 different concentrations, and the assay was repeated twice. […] C1 and C2 represent controls where C1 is DNA without formic acid, and C2 is DNA without formic acid, but heated thereby forming single strands. Cross-links are clearly detectable at concentrations as low as 10 nM. Using the same assay, the PBD dimer Talirine was also shown to cross-link DNA down to a concentration of 10 nM (FIG. 7).
The preparation of the DNA fragments (FIG. 5) has been previously described^[4]. Briefly, the sequence which had been cloned into the BamHI site of pUC18 was obtained by cutting with HindIII and EcoRI. Radiolabelled DNA fragments were prepared by filling in the 3′-end of the HindIII site with [α-^32P]dATP using Klenow DNA polymerase (exo-).
The radiolabelled DNA fragment was separated from the remainder of the plasmid DNA on a 6% non-denaturing polyacrylamide gel. […]

Work on `CNS(=O)(=O)c1ccc(C2=CCN3C(=O)c4cc(OC)c(OCc5cccc(COc6cc7c(cc6OC)C(=O)N6CC=C(c8ccc(S(=O)(=O)NC)cc8)C[C@H]6C=N7)n5)cc4N=C[C@@H]3C2)cc1` [Compound 34, 4,4′-((6aS,6a′S)-((Pyridine-2,6-diylbis(methylene))bis(oxy))bis(2-methoxy-12-oxo-6a,7,10,12-tetrahydrobenzo[e]pyrido[1,2-α][1,4]diazepine-3,8-diyl))bis(N-methylbenzenesulfonamide)] yielded an IC50 [1] of 0.057 nM, an IC50 [2] of 0.041 nM and an IC50 [3] of 0.325 nM. For the same compound, the IC50 [4] was 0.0077 nM, the IC50 [5] was 0.159 nM and the “lowest concentration at which DNA interstrand cross-links are detectable” value [6] was 10 nM.
